Starred links: 1 amine or outer side, 2 acyl side, 3 side chain; linkers in the order of their positions; H or OH if unused. Non-standard residues stand in square brackets, D forms with d. Residues, ends and D or L forms follow the SMILES beside them. X3 = O=C(Cn1c(=O)n(C2CCN([*:1])CC2)c2ccccc21)[*:2]; X7 = O=C(Cn1c(=O)c2ccccc2c2ccc(N[*:1])cc21)[*:2]; Butenoyl(2E,4-amino) = O=C(/C=C/CN[*:1])[*:2]; X4 = O=C(Cn1c2c(c3ccccc31)CN([*:1])CC2)[*:2]; Oic = O=C(O)[C@@H]1C[C@@H]2CCCC[C@@H]2N1; X1 = O=C(C/C=C/c1ccccc1CN[*:1])[*:2]; X6 = O=C(/C=C/c1ccccc1CCN[*:1])[*:2]; X2 = O=C(/C=C/c1ccccc1CN[*:1])[*:2]; dTic = O=C(O)[C@H]1Cc2ccccc2CN1; 12Ado = NCCCCCCCCCCCC(=O)O; Nphe = O=C(O)CNCc1ccccc1; Ahx = NCCCCCC(=O)O

For the first experiment, the target named is T1, human bradykinin B2 receptor (Homo sapiens, UniProt P30411).
T1 construct: The HindIII/XbaI fragment of one full-length clone, 126A, was inserted into pcDNAI neo vector; expressed in transfected cells
T1 sequence (P30411 1-391): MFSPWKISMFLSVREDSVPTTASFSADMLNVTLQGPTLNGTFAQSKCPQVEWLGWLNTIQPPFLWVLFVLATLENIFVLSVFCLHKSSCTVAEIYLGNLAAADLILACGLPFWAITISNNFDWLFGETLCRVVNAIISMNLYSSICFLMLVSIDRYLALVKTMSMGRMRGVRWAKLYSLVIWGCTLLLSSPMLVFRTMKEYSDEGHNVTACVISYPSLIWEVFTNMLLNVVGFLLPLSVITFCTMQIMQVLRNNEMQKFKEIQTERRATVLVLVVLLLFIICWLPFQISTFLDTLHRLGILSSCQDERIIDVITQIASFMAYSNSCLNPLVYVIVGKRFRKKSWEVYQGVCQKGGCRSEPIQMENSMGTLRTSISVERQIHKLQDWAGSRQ
The experiment can be described thus: Radioligand binding, H2O.2 cell membranes, 3H-bradykinin. Conditions: Table 1, read-out: Radioligand Binding Human 3HBK. On the procedure: (§1) A human bradykinin B2 receptor was expressed in CHO/K cells. Briefly, approximately 2×10^6 plaques from a human uterus λgt10 cDNA library (Clontech Laboratories; Palo Alto, Calif.) were screened using a PCR fragment containing the coding region of the rat B2 receptor. This probe was generated by random-primed synthesis in the presence of α[^32 P]dATP. Duplicate filters were hybridized overnight at 42° C. in 1M NaCl, 50 mM Tris pH 7.5, 5× Denhardt's, 200 μg/ml salmon sperm DNA, 1% SDS, and 20% formamide. The filters were washed at 65° C. in 1× SSC and 1% SDS. Coincident positively hybridizing plaques were purified and rescreened with the same probe and stringency conditions. EcoRI fragments of positive clones were inserted into Bluescript/KS II+vector (Stratagene; La Jolla, Calif.) for sequence determination.
(§2) The nucleotide sequence of the cloned human B2 receptors was determined using double-stranded DNA and the dideoxy chain termination method. Commercially available T3 and T7 oligonucleotides (USB; Cleveland, Ohio) and synthetic 21-mer oligonucleotides (DNA/RNA Synthesizer; applied Biosystems Inc.; Palo Alto, Calif.) from both the known rat sequence and the determined human sequence were used to identify the nucleotide sequence from the 5' untranslated end to the BglII site in the 3' untranslated end of the clone.
(§3) CHO/K cells were plated in 2 ml of growth medium (Ham's F12 with 10% FBS) per 6 well plate and incubated at 37° C., 5% CO2 until they were 60% confluent. For each well, 4, 12, and 16 μg of DNA was diluted in 100 μl Opti-MEM I reduced serum medium (Gibco/BRL; Gaithersburg, Md.). 12 μl of TransfectASE reagent (Gibco/BRL) was diluted in a separate aliquot of 100 μl Opti-MEM I. The DNA and TransfecASE solutions were combined, mixed gently, and incubated at 25° C. for 15 minutes. This solution was then diluted to 1 ml with Opti-MEM I. Each well was washed twice with Opti-MEM I and 1 ml of the DNA/TransfectAse complex was added to each well. After a 5 hour incubation at 37° C. and 5% CO2, 1 ml of Ham's F12 with 20% FBS was added to each well and cells were incubated overnight. Media was replaced with growth medium and incubated for additional 24 hours.
(§4) This assay measures the ability of a bradykinin antagonist compound to compete for binding to the human B2 receptor with tritiated bradykinin or tritiated NPC17731, a bradykinin analog which is known to bind the B2 receptor and act as a bradykinin antagonist.
(§5) H2O.2 cells were grown to confluency in Ham's F12 media containing 10% FBS and 500 μg/ml Geneticin. Growth media was aspirated and the monolayer washed once with Dulbecco's PBS without Ca^++ and Mg^++. Cells were scraped in Dulbecco's PBS and centrifuged at 2,000×g for 10 minutes. Pellets were resuspended in 25 mM TES, 1 mM 1,10-phenanthroline pH 6.8 buffer and homogenized using a Ploytron at setting 5 for 10 seconds. An aliquot was taken for a protein determination using a BioRad protein assay kit. Membranes were centrifuged at 48,000×g for 10 minutes at 4° C. Pellets were resuspended in the TES buffer with 0.1% BSA and 0.014% bacitracin. 0.5 ml aliquots were frozen in liquid N2 and stored at -80° C. for up to 2 weeks.
(§6) Membranes from H2O.2 cells previously prepared were thawed at 37° C. and diluted in 25 mM TES, […] 1,10-phenanthroline pH 6.8 containing BSA and bactiracin. […] Non-specific binding was determined with 1 μM bradykinin. The tubes were incubated 90 minutes at 25° C. and the assay was terminated by rapid vacuum filtration onto Whatman GF/B filters presoaked with 0.2% PEI for 3 hours followed by 2×3 ml aliquots of ice-cold 50 mM Tris, pH 7.4. Radioactivity was counted with a Beckman scintillation counter.
`N=C(N)NCCC[C@@H](N)C(=O)N[C@@H](CCCNC(=N)N)C(=O)NCc1ccccc1/C=C/CC(=O)N[C@@H](CO)C(=O)N1Cc2ccccc2C[C@@H]1C(=O)N1[C@H](C(=O)N[C@@H](CCCNC(=N)N)C(=O)O)C[C@@H]2CCCC[C@@H]21` (H-[dR]R[X1]S[dTic][Oic]R-OH): the Ki worked out at 51 nM.

The experiment is the same for the next values; noted with them: Table 2, read-out: Radioligand Binding, Ki Human 3HBK.
On to `Cc1cc(C)nc(NCCC[C@@H](NC(=O)Cn2c3c(c4ccccc42)CCN(C(=O)CN2CN(c4ccccc4)C4(CCN(C(=O)[C@@H](N)CCCNC(=N)N)CC4)C2=O)C3)C(N)=O)n1` [Compound 15], for which the Ki is 285 nM. On the same count and under the same terms, then `Cc1cc(C)nc(NCCC[C@@H](NC(=O)Cn2c3c(c4ccccc42)CN(C(=O)CN2CN(CC4CCCCC4)C4(CCN(C(=O)[C@H](CCCNC(=N)N)NC(=O)[C@H](N)CCCNC(=N)N)CC4)C2=O)CC3)C(N)=O)n1` [Compound 20], with 52 nM. Regarding `N=C(N)NCCC[C@@H](N)C(=O)N[C@@H](CCCNC(=N)N)C(=O)N1CCC2(CC1)C(=O)N(CC(=O)N1CCc3c(n(CCC(=O)N[C@@H](CCCNC(=N)N)C(=O)O)c4ccccc34)C1)CN2c1ccccc1` [Compound 8], the Ki turned out to be 223 nM.

Turning to `Cc1cc(C)nc(NCCC[C@@H](NC(=O)Cn2c3c(c4ccccc42)CCN(C(=O)CN2CN(c4ccccc4)C4(CCN(C(=O)[C@H](CCCNC(=N)N)NC(=O)[C@H](N)CCCNC(=N)N)CC4)C2=O)C3)C(N)=O)n1` [Compound 14], the Ki was determined as 78.4 nM.

Regarding `N=C(N)NCCC[C@@H](N)C(=O)N[C@@H](CCCNC(=N)N)C(=O)N1CCC2(CC1)C(=O)N(CC(=O)N1CCc3c(c4ccccc4n3CC(=O)N[C@@H](CCCNC(=N)N)C(=O)O)C1)CN2C1CCCCC1` [Compound 10], the Ki is 229 nM. Still for that read-out and setting: in the case of `COc1ccc(N2CN(CC(=O)N3CCc4c(c5ccccc5n4CC(=O)N[C@@H](CCCNC(=N)N)C(=O)O)C3)C(=O)C23CCN(C(=O)[C@H](CCCNC(=N)N)NC(=O)[C@H](N)CCCNC(=N)N)CC3)cc1` [Compound 9] it was 129 nM.

Turning to `N=C(N)NCCC[C@@H](N)C(=O)N[C@@H](CCCNC(=N)N)C(=O)N1CCc2c(n(CCC(=O)N3CCC4(CC3)C(=O)N(CC(=O)N[C@@H](CCCNC(=N)N)C(=O)O)CN4c3ccccc3)c3ccccc23)C1` [Compound 3], the Ki turned out to be 570 nM. The same measure, in the same setting: in the case of `N=C(N)NCCC[C@@H](N)C(=O)N[C@@H](CCCNC(=N)N)C(=O)N1CCC2(CC1)C(=O)N(CC(=O)N1CCc3c(n(CC(=O)N[C@@H](CCCNC(=N)N)C(=O)O)c4ccccc34)C1)CN2C1CCCCC1` [Compound 4] it was 1400 nM; in that of `Cc1cc(C)nc(NCCC[C@@H](NC(=O)Cn2c3c(c4ccccc42)CCN(C(=O)CN2CN(c4ccccc4)C4(CCN(C(=O)[C@H](N)CCCNC(=N)N)CC4)C2=O)C3)C(N)=O)n1` [Compound 16], 212 nM. For `CCCN1CN(CC(=O)N2CCc3c(c4ccccc4n3CC(=O)N[C@@H](CCCNC(=N)N)C(=O)O)C2)C(=O)C12CCN(C(=O)[C@H](CCCNC(=N)N)NC(=O)[C@H](N)CCCNC(=N)N)CC2` [Compound 11], the Ki was found to be 473 nM. Same read-out and setting: then `N=C(N)NCCC[C@@H](N)C(=O)N[C@@H](CCCNC(=N)N)C(=O)N1CCC2(CC1)C(=O)N(CC(=O)N1CCc3c(c4ccccc4n3CC(=O)N[C@@H](CCCNC(=N)N)C(=O)O)C1)CN2CC1CCCCC1` [Compound 12], with 168 nM; and `N=C(N)NCCC[C@@H](N)C(=O)N[C@@H](CCCNC(=N)N)C(=O)N1CCC2(CC1)C(=O)N(CC(=O)N1CCc3c(c4ccccc4n3CC(=O)N[C@@H](CCCNC(=N)N)C(=O)O)C1)CN2c1ccccc1` [Compound 7], with 325 nM.

The target in a further experiment is T1, human bradykinin B2 receptor. Put plainly: Radioligand binding, H2O.2 cell membranes, 3H-NPC17731.
Conditions: not given
Here is the method: as §1, §2, §3, §4, §5, §6
In turn, `N=C(N)NCCC[C@@H](N)C(=O)N[C@@H](CCCNC(=N)N)C(=O)N1CCC2(CC1)C(=O)N(CC(=O)N[C@@H](CO)C(=O)N1Cc3ccccc3C[C@@H]1C(=O)N1[C@H](C(=O)N[C@@H](CCCNC(=N)N)C(=O)O)C[C@@H]3CCCC[C@@H]31)CN2c1ccccc1` [drawing 59] had a Ki of 7.8 nM.

The same experiment, now with this note: Table 1; 3H-NPC17731; read-out: Radioligand Binding Human 3H17731.
For the compound `N=C(N)NCCC[C@@H](N)C(=O)N[C@@H](CCCNC(=N)N)C(=O)NCc1ccccc1/C=C/C(=O)N(CC(=O)N[C@@H](CO)C(=O)N1Cc2ccccc2C[C@@H]1C(=O)N1[C@H](C(=O)N[C@@H](CCCNC(=N)N)C(=O)O)C[C@@H]2CCCC[C@@H]21)Cc1ccccc1` (H-[dR]R[X2][Nphe]S[dTic][Oic]R-OH), the Ki came out at 28 nM. Turning to `N=C(N)NCCC[C@@H](N)C(=O)N[C@@H](CCCNC(=N)N)C(=O)NCCc1ccccc1/C=C/C(=O)N[C@@H](CO)C(=O)N1Cc2ccccc2C[C@@H]1C(=O)N1[C@H](C(=O)N[C@@H](CCCNC(=N)N)C(=O)O)C[C@@H]2CCCC[C@@H]21` (H-[dR]R[X6]S[dTic][Oic]R-OH), the Ki came out at 23 nM. Still for that read-out and setting: then `N=C(N)NCCC[C@@H](N)C(=O)N[C@@H](CCCNC(=N)N)C(=O)NCCCCCC(=O)N[C@@H](CO)C(=O)N1Cc2ccccc2C[C@@H]1C(=O)N1[C@H](C(=O)N[C@@H](CCCNC(=N)N)C(=O)O)C[C@@H]2CCCC[C@@H]21` (H-[dR]R[Ahx]S[dTic][Oic]R-OH), with 100 nM; and `N=C(N)NCCC[C@@H](N)C(=O)N[C@@H](CCCNC(=N)N)C(=O)NC/C=C/C(=O)N[C@@H](CO)C(=O)N1Cc2ccccc2C[C@@H]1C(=O)N1[C@H](C(=O)N[C@@H](CCCNC(=N)N)C(=O)O)C[C@@H]2CCCC[C@@H]21` (H-[dR]R[Butenoyl(2E,4-amino)]S[dTic][Oic]R-OH), with 229 nM; and `N=C(N)NCCC[C@@H](N)C(=O)N[C@@H](CCCNC(=N)N)C(=O)NCCCCCCCCCCCC(=O)N[C@@H](CO)C(=O)N1Cc2ccccc2C[C@@H]1C(=O)N1[C@H](C(=O)N[C@@H](CCCNC(=N)N)C(=O)O)C[C@@H]2CCCC[C@@H]21` (H-[dR]R[12Ado]S[dTic][Oic]R-OH), with 31 nM. Still for that read-out and setting: in the case of `N=C(N)NCCC[C@@H](N)C(=O)N[C@@H](CCCNC(=N)N)C(=O)Nc1ccc2c3ccccc3c(=O)n(CC(=O)N[C@@H](CO)C(=O)N3Cc4ccccc4C[C@@H]3C(=O)N3[C@H](C(=O)N[C@@H](CCCNC(=N)N)C(=O)O)C[C@@H]4CCCC[C@@H]43)c2c1` (H-[dR]R[X7]S[dTic][Oic]R-OH) it was 3.3 nM; in that of `N=C(N)NCCC[C@@H](N)C(=O)N[C@@H](CCCNC(=N)N)C(=O)N1CCC(n2c(=O)n(CC(=O)N[C@@H](CO)C(=O)N3Cc4ccccc4C[C@@H]3C(=O)N3[C@H](C(=O)N[C@@H](CCCNC(=N)N)C(=O)O)C[C@@H]4CCCC[C@@H]43)c3ccccc32)CC1` (H-[dR]R[X3]S[dTic][Oic]R-OH), 58 nM; in that of `N=C(N)NCCC[C@@H](N)C(=O)N[C@@H](CCCNC(=N)N)C(=O)N1CCc2c(c3ccccc3n2CC(=O)N[C@@H](CO)C(=O)N2Cc3ccccc3C[C@@H]2C(=O)N2[C@H](C(=O)N[C@@H](CCCNC(=N)N)C(=O)O)C[C@@H]3CCCC[C@@H]32)C1` (H-[dR]R[X4]S[dTic][Oic]R-OH), 78 nM.

Turning to `N=C(N)NCCC[C@@H](N)C(=O)N[C@@H](CCCNC(=N)N)C(=O)NCc1ccccc1/C=C/CC(=O)N[C@@H](CO)C(=O)N1Cc2ccccc2C[C@@H]1C(=O)N1[C@H](C(=O)N[C@@H](CCCNC(=N)N)C(=O)O)C[C@@H]2CCCC[C@@H]21` (H-[dR]R[X1]S[dTic][Oic]R-OH), the Ki was determined as 17 nM.

For the origin of these results see patent publication US5817756A, “Pseudo- and non-peptide bradykinin receptor antagonists” (Scios Inc., priority 1995, dated 1998).
